ChEMBL document CHEMBL1135312, “N-Aroyl-L-phenylalanine derivatives as VCAM/VLA-4 antagonists” (Bioorg Med Chem Lett, 2002)

Columns and labels:
[1] = target: T1, Integrin alpha-4/beta-1 (Homo sapiens, UniProt P05556+P13612); assay: Inhibitory binding concentration against VCAM/VLA-4 in ELISA.; type: protein-complex assay
[2] = target: T1, Integrin alpha-4/beta-1; assay: Inhibitory binding concentration against VCAM/VLA-4 in Ramos.; type: protein-complex assay

T1 sequence (P05556 whole entry): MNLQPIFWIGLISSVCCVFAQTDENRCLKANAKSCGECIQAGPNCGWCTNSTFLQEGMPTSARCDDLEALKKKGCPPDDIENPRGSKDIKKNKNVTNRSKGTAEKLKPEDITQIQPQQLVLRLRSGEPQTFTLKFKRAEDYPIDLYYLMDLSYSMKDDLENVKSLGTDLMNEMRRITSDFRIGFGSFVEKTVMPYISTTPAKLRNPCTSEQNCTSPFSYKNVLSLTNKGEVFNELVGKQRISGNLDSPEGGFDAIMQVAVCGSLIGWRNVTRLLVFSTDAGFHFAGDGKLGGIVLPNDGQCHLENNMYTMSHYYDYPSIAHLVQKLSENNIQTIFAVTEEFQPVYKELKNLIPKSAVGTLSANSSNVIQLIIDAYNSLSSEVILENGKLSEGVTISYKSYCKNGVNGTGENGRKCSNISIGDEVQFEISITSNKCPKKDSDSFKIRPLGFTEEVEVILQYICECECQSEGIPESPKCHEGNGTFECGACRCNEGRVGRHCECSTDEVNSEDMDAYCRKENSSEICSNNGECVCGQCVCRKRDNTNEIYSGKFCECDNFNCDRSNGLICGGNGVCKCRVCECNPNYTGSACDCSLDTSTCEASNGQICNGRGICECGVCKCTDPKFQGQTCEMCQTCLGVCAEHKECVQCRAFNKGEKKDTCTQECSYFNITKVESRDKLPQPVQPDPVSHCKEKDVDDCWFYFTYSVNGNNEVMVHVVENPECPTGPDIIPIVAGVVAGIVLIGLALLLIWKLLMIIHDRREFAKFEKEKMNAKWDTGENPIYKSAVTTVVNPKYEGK
T1 sequence (P13612 whole entry): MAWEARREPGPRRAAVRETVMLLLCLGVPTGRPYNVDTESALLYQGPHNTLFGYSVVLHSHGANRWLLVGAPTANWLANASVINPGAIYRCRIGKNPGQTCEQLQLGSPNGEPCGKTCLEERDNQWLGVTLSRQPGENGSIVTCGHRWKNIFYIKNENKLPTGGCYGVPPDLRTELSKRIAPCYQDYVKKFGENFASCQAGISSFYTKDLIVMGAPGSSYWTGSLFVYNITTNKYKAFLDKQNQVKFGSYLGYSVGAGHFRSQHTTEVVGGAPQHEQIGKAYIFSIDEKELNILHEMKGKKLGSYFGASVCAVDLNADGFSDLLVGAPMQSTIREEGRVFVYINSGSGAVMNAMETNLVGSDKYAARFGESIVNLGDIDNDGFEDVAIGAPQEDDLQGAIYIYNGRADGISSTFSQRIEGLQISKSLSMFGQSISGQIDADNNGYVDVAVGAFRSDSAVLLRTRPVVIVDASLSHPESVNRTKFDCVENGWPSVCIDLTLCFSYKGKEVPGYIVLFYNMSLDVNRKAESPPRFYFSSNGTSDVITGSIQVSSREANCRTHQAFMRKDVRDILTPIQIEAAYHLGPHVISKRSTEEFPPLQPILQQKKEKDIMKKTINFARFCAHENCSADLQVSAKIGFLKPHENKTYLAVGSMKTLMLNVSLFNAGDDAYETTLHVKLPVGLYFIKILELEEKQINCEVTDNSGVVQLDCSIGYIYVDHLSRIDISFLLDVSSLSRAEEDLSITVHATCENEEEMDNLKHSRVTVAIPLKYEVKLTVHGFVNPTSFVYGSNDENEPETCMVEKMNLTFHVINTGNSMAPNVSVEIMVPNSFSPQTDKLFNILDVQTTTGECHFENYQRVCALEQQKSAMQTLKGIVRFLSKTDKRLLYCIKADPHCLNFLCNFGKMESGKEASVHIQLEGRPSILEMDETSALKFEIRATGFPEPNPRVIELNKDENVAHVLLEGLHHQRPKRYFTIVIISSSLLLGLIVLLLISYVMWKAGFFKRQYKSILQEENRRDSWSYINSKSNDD

| IC50 [1] [nM] | IC50 [2] [nM] | Structure (SMILES) |
| --- | --- | --- |
| 11 | 460 | Cc1ccc(Cl)c(C(=O)N[C@@H](Cc2ccc(NC(=O)c3c(Cl)cccc3Cl)cc2)C(=O)O)c1 |
| 0.56 | 69 | Cc1nc(C(C)C)sc1C(=O)N[C@@H](Cc1ccc(NC(=O)c2c(Cl)cccc2Cl)cc1)C(=O)O |
| – | 1300 | Cc1cccc(C(=O)N[C@@H](Cc2ccc(NC(=O)c3c(Cl)cccc3Cl)cc2)C(=O)O)c1Cl |
| 0.44 | 85 | Cc1cccc(F)c1C(=O)N[C@@H](Cc1ccc(NC(=O)c2c(Cl)cccc2Cl)cc1)C(=O)O |
| 1.9 | – | COc1ccc(C(=O)N[C@@H](Cc2ccc(NC(=O)c3c(Cl)cccc3Cl)cc2)C(=O)O)c(Cl)c1 |
| 0.42 | 17 | CCCc1cccc(C)c1C(=O)N[C@@H](Cc1ccc(NC(=O)c2c(Cl)cccc2Cl)cc1)C(=O)O |
| 16 | 650 | O=C(N[C@@H](Cc1ccc(NC(=O)c2c(Cl)cccc2Cl)cc1)C(=O)O)c1ccccc1C(F)(F)F |
| – | 6800 | COc1ccccc1C(=O)N[C@@H](Cc1ccc(NC(=O)c2c(Cl)cccc2Cl)cc1)C(=O)O |
| – | 1300 | O=C(N[C@@H](Cc1ccc(NC(=O)c2c(Cl)cccc2Cl)cc1)C(=O)O)c1ccc(Br)cc1Cl |
| 0.49 | 45 | O=C(N[C@@H](Cc1ccc(NC(=O)c2c(Cl)cccc2Cl)cc1)C(=O)O)c1ccccc1Br |
| – | 160 | CS(=O)(=O)c1ccccc1C(=O)N[C@@H](Cc1ccc(NC(=O)c2c(Cl)cccc2Cl)cc1)C(=O)O |
| – | 19 | COc1ccc(Br)c(C(=O)N[C@@H](Cc2ccc(NC(=O)c3c(Cl)cccc3Cl)cc2)C(=O)O)c1 |
| 0.3 | 12 | Cc1cccc(Cl)c1C(=O)N[C@@H](Cc1ccc(NC(=O)c2c(Cl)cccc2Cl)cc1)C(=O)O |
| 0.4 | 100 | CSc1ccccc1C(=O)N[C@@H](Cc1ccc(NC(=O)c2c(Cl)cccc2Cl)cc1)C(=O)O |
| 8.8 | 450 | O=C(N[C@@H](Cc1ccc(NC(=O)c2c(Cl)cccc2Cl)cc1)C(=O)O)c1cc(C(F)(F)F)ccc1Cl |
| 0.3 | – | CCc1cccc(C)c1C(=O)N[C@@H](Cc1ccc(NC(=O)c2c(Cl)cccc2Cl)cc1)C(=O)O |

| IC50 [1] [nM] | IC50 [2] [nM] | Structure (SMILES) |
| --- | --- | --- |
| 1.3 | 84 | Cc1cccc(C)c1C(=O)N[C@@H](Cc1ccc(NC(=O)c2c(Cl)cccc2Cl)cc1)C(=O)O |
| – | 460 | CC(C)c1cccc(C(C)C)c1C(=O)N[C@@H](Cc1ccc(NC(=O)c2c(Cl)cccc2Cl)cc1)C(=O)O |
| 2 | 180 | Cc1ncccc1C(=O)N[C@@H](Cc1ccc(NC(=O)c2c(Cl)cccc2Cl)cc1)C(=O)O |
| 1.6 | 49 | CC(=O)c1cccc(Cl)c1C(=O)N[C@@H](Cc1ccc(NC(=O)c2c(Cl)cccc2Cl)cc1)C(=O)O |
| – | 1000 | CNc1ccccc1C(=O)N[C@@H](Cc1ccc(NC(=O)c2c(Cl)cccc2Cl)cc1)C(=O)O |
| – | 200 | Cc1cc(C(F)(F)F)c(C(=O)N[C@@H](Cc2ccc(NC(=O)c3c(Cl)cccc3Cl)cc2)C(=O)O)c(C)n1 |
| 1.2 | 67 | O=C(N[C@@H](Cc1ccc(NC(=O)c2c(Cl)cccc2Cl)cc1)C(=O)O)c1c(F)cccc1F |
| – | 1600 | O=C(N[C@@H](Cc1ccc(NC(=O)c2c(Cl)cccc2Cl)cc1)C(=O)O)c1cccc(Cl)c1Cl |
| 0.4 | – | O=C(Nc1ccc(C[C@H](NC(=O)c2c(F)cccc2C(F)(F)F)C(=O)O)cc1)c1c(Cl)cccc1Cl |
| 1.5 | 890 | O=C(N[C@@H](Cc1ccc(NC(=O)c2c(Cl)cccc2Cl)cc1)C(=O)O)c1sccc1Br |
| 15 | 580 | Cc1noc(C)c1C(=O)N[C@@H](Cc1ccc(NC(=O)c2c(Cl)cccc2Cl)cc1)C(=O)O |
| 2 | 190 | O=C(N[C@@H](Cc1ccc(NC(=O)c2c(Cl)cccc2Cl)cc1)C(=O)O)c1cncnc1C(F)(F)F |
| 25 | 1440 | Cc1nn(-c2ccccc2)nc1C(=O)N[C@@H](Cc1ccc(NC(=O)c2c(Cl)cccc2Cl)cc1)C(=O)O |
| 0.89 | 23 | Cc1ccnc(C)c1C(=O)N[C@@H](Cc1ccc(NC(=O)c2c(Cl)cccc2Cl)cc1)C(=O)O |
| 1.9 | 74 | CC(C)(C)c1ccccc1C(=O)N[C@@H](Cc1ccc(NC(=O)c2c(Cl)cccc2Cl)cc1)C(=O)O |
